Results taken from publication PMC9467586, “Development of novel 9-O-substituted-13-octylberberine derivatives as potential anti-hepatocellular carcinoma agents” (Journal of Enzyme Inhibition and Medicinal Chemistry, 2022).
Where two headings read alike, the source gives them in different places.

Columns and labels:
[1] = test system: H22 liver cancer xenograft; assay: In vivo anti-HCC assay, H22 liver cancer xenograft mouse model; set-up: species or system mice; conditions: 20 mg/kg, intravenous, once a day for 21 days, H22 mice
Protocol: Five-week-old male Institute of Cancer Research (ICR) mice were purchased from Shanghai SLAC Laboratory Animals Co. Ltd. Briefly, a total of 1 × 10^6 H22 cells were subcutaneously inoculated into the right flank of ICR mice according to protocols of tumour transplant research, to initiate tumour growth. After incubation for one day, mice were weighed and randomly divided into 5 groups of 8 animals. The groups were administered berberine (30 mg/kg) and 6k (15 or 30 mg/kg) in a vehicle of 10% DMF/2% Tween 80/88% saline, respectively. Vehicle and cyclophosphamide (20 mg/kg) were employed as negative and positive controls, respectively. Treatments were performed by intravenous injection once per day for a total of 21 consecutive days. Body weights and tumour volumes were measured every 2 days. The mice were sacrificed after the treatments, and the tumours were excised and weighed. The tumour volume and inhibition rate (w/w) were calculated as follows: tumour volume = L × W^2/2, where L is the length and W is the width; tumour inhibitory ratio (%) = (1-average tumour weight of treated group/average tumour weight of control group) × 100%. All procedures were performed following institutional approval in accordance with the NIH Guide for the Care and Use of Laboratory Animals.

normal hepatocytes L-02 = assay: MTT cytotoxicity assay, normal hepatocytes L-02; type: cell-based; conditions: normal hepatocytes L-02, MTT, 72 h, mean ± SD (n = 3)
Protocol: (§1) HepG2, Sk-Hep-1, Huh-7, Hep3B and L-02 cells were purchased from Nanjing Key Gen Biotech Co. Ltd. (Nanjing, China). The cytotoxicity of test compounds was determined using an MTT assay. Briefly, the cell lines were incubated at 37 °C in a humidified 5% CO2 incubator for 24 h in 96-microwell plates. After medium removal, 100 μL of culture medium with 0.1% DMSO containing test compounds at different concentrations was added to each well and incubated at 37 °C for another 72 h. The MTT (5 mg/mL in PBS) was added and incubated for another 4 h, the optical density was detected with a microplate reader at 490 nm. The IC50 values were calculated according to the dose-dependent curves. All the experiments were repeated in at least three independent experiments.

HepG2 cells = assay: In vitro antiproliferative MTT assay, HepG2 cells; type: cell-based, human; conditions: 72 h, mean ± SD (n = 3), read-out: IC50 (antiproliferative activity against HepG2 cells)
Protocol: as §1

Sk-Hep-1 cells = assay: In vitro antiproliferative MTT assay, Sk-Hep-1 cells; type: cell-based, human; conditions: 72 h, mean ± SD (n = 3)
Protocol: as §1

Huh-7 cells = assay: In vitro antiproliferative MTT assay, Huh-7 cells; type: cell-based, human; conditions: 72 h, mean ± SD (n = 3)
Protocol: as §1

Hep3B cells = assay: In vitro antiproliferative MTT assay, Hep3B cells; type: cell-based, human; conditions: 72 h, mean ± SD (n = 3)
Protocol: as §1

[2] = Aqueous solubility measurement by HPLC; type: physicochemical; conditions: 25 °C, pH 7.4, aqueous buffer, thermodynamic from solid
Protocol: Berberine, 3c and 6k (5 mg) were dissolved in 1 ml PBS (50 mM, pH 7.4) at 25 °C. The suspension was sonicated for 30 min and then centrifuged at 15000 g for 5 min. The supernatant was filtered through a PTFE filter (0.2 μm) slowly. Then 10 μL filtered solution was injected into the HPLC system (Shimadzu DGU-20A3R) on a Shimadzu-GL WondaSil C18-WR column and quantified using the standard curves made by the corresponding known concentrations of berberine, 3c and 6k. The eluent was methanol/water (65/35, v/v) at a flow rate of 1.0 ml/min with the detection wavelength at 254 nm.

[3] = LWP coefficient (log D) measurement, shake flask; type: physicochemical; conditions: pH 7.4
Protocol: Berberine, 3c and 6k of 1 mg were dissolved in three centrifugal tubes (5 ml) containing phosphate buffer (pH 7.4)-saturated 1-octanol solution (2 mL), followed by the addition of 1-octanol saturated PBS (2 mL). Each tube was vigorously mixed for 1 min and then shaken for 6 h at a speed of 1000 rpm at 37 °C. The mixtures were then centrifuged. 1 mL of 1-octanol phase and 1 mL of buffer were separately collected. Each phase was diluted to a suitable concentration and analysed by HPLC (Shimadzu DGU-20A3R) on a Shimadzu-GL WondaSil C18-WR column (λ = 254 nm) with an eluent of methanol/water (65/35, v/v, 1.0 ml/min). The log D value for each compound was calculated from the ratio of the peak areas using the following equation: Log D = log (Areaoct × x/Areabuf × y). x, y is the dilution factor.

O=P1(N(CCCl)CCCl)NCCCO1 (stereo not drawn) [CP, cyclophosphamide, reference compound]
tumour inhibitory rate (TIR, w/w) [1]: 64.2%

N.N.[Cl][Pt][Cl] [Cisplatin]
IC50 (normal hepatocytes L-02): 6.79 ± 0.46 µM | IC50 (HepG2 cells): 6.87 ± 0.31 µM | IC50 (Sk-Hep-1 cells): 6.52 ± 0.42 µM | IC50 (Huh-7 cells): 3.03 ± 0.63 µM | IC50 (Hep3B cells): 11.2 ± 0.51 µM

COc1ccc2c(Cc3ccccc3)c3[n+](cc2c1OC)CCc1cc2c(cc1-3)OCO2 [Compound 3a, 13-Benzyl-9,10-dimethoxy-5,6-dihydro-[1,3]dioxolo[4,5-g]isoquinolino[3,2-a]isoquinolin-7-ium bromide]
IC50 (HepG2 cells; Homo sapiens): > 50 µM

CCCCCCc1c2[n+](cc3c(OC)c(OC)ccc13)CCc1cc3c(cc1-2)OCO3 [Compound 3b, 13-Hexyl-9,10-dimethoxy-5,6-dihydro-[1,3]dioxolo[4,5-g]isoquinolino[3,2-a]isoquinolin-7-ium chloride]
IC50 (HepG2 cells; Homo sapiens): 6.14 ± 0.57 µM

CCCCCCCCc1c2[n+](cc3c(OC)c(OC)ccc13)CCc1cc3c(cc1-2)OCO3.[Cl-] [Compound 3c, 9,10-Dimethoxy-13-octyl-5,6-dihydro-[1,3]dioxolo[4,5-g]isoquinolino[3,2-a]isoquinolin-7-ium chloride]
IC50 (HepG2 cells; Homo sapiens): 4.12 ± 0.26 µM | solubility at 30 min [2]: 1120 µg/mL | logD [3]: 2.41

CCCCCCCCCCc1c2[n+](cc3c(OC)c(OC)ccc13)CCc1cc3c(cc1-2)OCO3 [Compound 3d, 13-Decyl-9,10-dimethoxy-5,6-dihydro-[1,3]dioxolo[4,5-g]isoquinolino[3,2-a]isoquinolin-7-ium chloride]
IC50 (HepG2 cells; Homo sapiens): 4.45 ± 0.34 µM

CCCCCCCCCCCCc1c2[n+](cc3c(OC)c(OC)ccc13)CCc1cc3c(cc1-2)OCO3 [Compound 3e, 13-Dodecyl-9,10-dimethoxy-5,6-dihydro-[1,3]dioxolo[4,5-g]isoquinolino[3,2-a]isoquinolin-7-ium chloride]
IC50 (HepG2 cells; Homo sapiens): 4.24 ± 0.44 µM

CCCCCCCCc1c2[n+](cc3c(OCCCN(CC)CC)c(OC)ccc13)CCc1cc3c(cc1-2)OCO3.[Br-] [Compound 6a, 9–(3-(Diethylamino)propoxy)-10-methoxy-13-octyl-5,6-dihydro-[1,3]dioxolo[4,5-g]isoquinolino[3,2-a]isoquinolin-7-ium bromide]
IC50 (HepG2 cells; Homo sapiens): 6.82 ± 0.51 µM | melting point: 142 to 144 °C

CCCCCCCCc1c2[n+](cc3c(OCCCN4CCCC4)c(OC)ccc13)CCc1cc3c(cc1-2)OCO3.[Br-] [Compound 6b, 10-Methoxy-13-octyl-9–(3-(pyrrolidin-1-yl)propoxy)-5,6-dihydro-[1,3]dioxolo[4,5-g]isoquinolino[3,2-a]isoquinolin-7-ium bromide]
IC50 (HepG2 cells; Homo sapiens): 7.75 ± 0.83 µM | melting point: 135 to 137 °C

CCCCCCCCc1c2[n+](cc3c(OCCCN4CCOCC4)c(OC)ccc13)CCc1cc3c(cc1-2)OCO3.[Br-] [Compound 6c, 10-Methoxy-9–(3-morpholinopropoxy)-13-octyl-5,6-dihydro-[1,3]dioxolo[4,5-g]isoquinolino[3,2-a]isoquinolin-7-ium bromide]
IC50 (HepG2 cells; Homo sapiens): 6.25 ± 0.56 µM | melting point: 167 to 169 °C

CCCCCCCCc1c2[n+](cc3c(OCCCCCCN(CC)CC)c(OC)ccc13)CCc1cc3c(cc1-2)OCO3.[Br-] [Compound 6d, 9-((6-(Diethylamino)hexyl)oxy)-10-methoxy-13-octyl-5,6-dihydro-[1,3]dioxolo[4,5-g]isoquinolino[3,2-a]isoquinolin-7-ium bromide]
IC50 (HepG2 cells; Homo sapiens): 4.75 ± 0.24 µM | melting point: 149 to 151 °C

CCCCCCCCc1c2[n+](cc3c(OCCCCCCN4CCCC4)c(OC)ccc13)CCc1cc3c(cc1-2)OCO3.[Br-] [Compound 6e, 10-Methoxy-13-octyl-9-((6-(pyrrolidin-1-yl)hexyl)oxy)-5,6-dihydro-[1,3]dioxolo[4,5-g]isoquinolino[3,2-a]isoquinolin-7-ium bromide]
IC50 (HepG2 cells; Homo sapiens): 3.91 ± 0.36 µM | melting point: 126 to 128 °C

CCCCCCCCc1c2[n+](cc3c(OCCCCCCN4CCOCC4)c(OC)ccc13)CCc1cc3c(cc1-2)OCO3.[Br-] [Compound 6f, 10-Methoxy-9-((6-morpholinohexyl)oxy)-13-octyl-5,6-dihydro-[1,3]dioxolo[4,5-g]isoquinolino[3,2-a]isoquinolin-7-ium bromide]
IC50 (HepG2 cells; Homo sapiens): 1.27 ± 0.25 µM | melting point: 164 to 166 °C

CCCCCCCCc1c2[n+](cc3c(OCCCCCCN4CCCCC4)c(OC)ccc13)CCc1cc3c(cc1-2)OCO3.[Br-] [Compound 6g, 10-Methoxy-13-octyl-9-((6-(piperidin-1-yl)hexyl)oxy)-5,6-dihydro-[1,3]dioxolo[4,5-g]isoquinolino[3,2-a]isoquinolin-7-ium bromide]
IC50 (HepG2 cells; Homo sapiens): 1.64 ± 0.13 µM | melting point: 132 to 134 °C

CCCCCCCCc1c2[n+](cc3c(OCCCCCCN4CCN(C)CC4)c(OC)ccc13)CCc1cc3c(cc1-2)OCO3.[Br-] [Compound 6h, 10-Methoxy-9-((6–(4-methylpiperazin-1-yl)hexyl)oxy)-13-octyl-5,6-dihydro-[1,3]dioxolo[4,5-g]isoquinolino[3,2-a]isoquinolin-7-ium bromide]
IC50 (HepG2 cells; Homo sapiens): 1.47 ± 0.19 µM | melting point: 165 to 167 °C

CCCCCCCCc1c2[n+](cc3c(OCCCCCCCCN4CCOCC4)c(OC)ccc13)CCc1cc3c(cc1-2)OCO3.[Br-] [Compound 6i, 10-Methoxy-9-((8-morpholinooctyl)oxy)-13-octyl-5,6-dihydro-[1,3]dioxolo[4,5-g]isoquinolino[3,2-a]isoquinolin-7-ium bromide]
IC50 (HepG2 cells; Homo sapiens): 0.81 ± 0.08 µM | melting point: 147 to 149 °C

CCCCCCCCc1c2[n+](cc3c(OCCCCCCCCN4CCCCC4)c(OC)ccc13)CCc1cc3c(cc1-2)OCO3.[Br-] [Compound 6j, 10-Methoxy-13-octyl-9-((8-(piperidin-1-yl)octyl)oxy)-5,6-dihydro-[1,3]dioxolo[4,5-g]isoquinolino[3,2-a]isoquinolin-7-ium bromide]
IC50 (HepG2 cells; Homo sapiens): 1 ± 0.1 µM | melting point: 144 to 146 °C

CCCCCCCCc1c2[n+](cc3c(OCCCCCCCCCCN4CCOCC4)c(OC)ccc13)CCc1cc3c(cc1-2)OCO3.[Br-] [Compound 6l, 10-Methoxy-9-((10-morpholinodecyl)oxy)-13-octyl-5,6-dihydro-[1,3]dioxolo[4,5-g]isoquinolino[3,2-a]isoquinolin-7-ium bromide]
IC50 (HepG2 cells; Homo sapiens): 1.28 ± 0.11 µM | melting point: 135 to 137 °C

CCCCCCCCc1c2[n+](cc3c(OCCCCCCCCCCN4CCCCC4)c(OC)ccc13)CCc1cc3c(cc1-2)OCO3.[Br-] [Compound 6m, 10-Methoxy-13-octyl-9-((10-(piperidin-1-yl)decyl)oxy)-5,6-dihydro-[1,3]dioxolo[4,5-g]isoquinolino[3,2-a]isoquinolin-7-ium bromide]
IC50 (HepG2 cells; Homo sapiens): 1.44 ± 0.13 µM | melting point: 142 to 144 °C

CCCCCCCCc1c2[n+](cc3c(OCCCCCCCCCCN4CCN(C)CC4)c(OC)ccc13)CCc1cc3c(cc1-2)OCO3.[Br-] [Compound 6n, 10-Methoxy-9-((10–(4-methylpiperazin-1-yl)decyl)oxy)-13-octyl-5,6-dihydro-[1,3]dioxolo[4,5-g]isoquinolino[3,2-a]isoquinolin-7-ium bromide]
IC50 (HepG2 cells; Homo sapiens): 1.08 ± 0.1 µM | melting point: 136 to 138 °C
